Columns and labels:
[1] = PET with DDE (and GLD) in patients with whiplash associated disorder (WAD); assay type: in vivo, human; conditions: for increase of uptake at cervical vertebrae 2 and 3 (insertion in m. semispinalis capitis): one case
Text: Clinically, those patients with a higher uptake of DDE in the affected joint areas seem to report high pain ratings while being in the scanner.
In a similar experiment, sixteen patients were investigated using a high resolution PET scanner.
In the […] experiments, local uptake was present in all cases in the parotis and submandibularis glandulae. Differences between patients were found in areas related to the insertion of muscles to the occipital bone, vertebrae and clavicula.

[2] = Pilot PET experiments in patients with bacterial abscesses; assay type: in vivo, human; conditions: small pilot series in patients
[3] = PET with DDE in inflamed joints (rheumatoid arthritis patients); assay type: in vivo, human
[4] = PET-CT with DDE in healthy subjects; assay type: in vivo, human; conditions: eight healthy subjects
Text: In a third experiment eight healthy subjects were investigated using a PET-CT (Computerized Tomography) scanner. PET/CT combines the strengths of two well-established imaging modalities, PET for function and CT for anatomy, into a single imaging device. The subjects were free from pain in the neck and shoulder regions during at least two months and they had not been involved in accidents which could have caused a neck injury.

[5] = Frozen section autoradiography / in vitro binding on tissue slices; set-up: species or system human; conditions: for tracer binding in inflammatory tissues in vitro: about 20 micrometer slices, about 2 nM tracer, about 40 minutes, room temperature
Procedure: There are various hypothesis as to what biological mechanisms are behind the high uptake of DDE in inflammatory joint tissues of humans.
The in vitro binding experiments were performed on thin slices of tissue of about 20 micrometers in rats and in humans. The thin slices of tissues were adhered to gelatinized slide glasses. […] After incubation the slide glasses were washed about 3 times in a buffer, dried, and exposed on phosphor imaging plates for a minimum of 60 minutes.

| Structure (SMILES) | increase in uptake compared with the cerebellum, insertion of m. rectus capitis posterior major ([1]; bilaterally in 3 patients, normalized to inferior part of the cerebellum) | binding of tracer to soft tissue in the neck vertebra ([1]; four of eight WAD patients, PET) | difference in uptake between right and left side ([1]; fourth patient, no clear increase) [%] | increase of uptake at cervical vertebrae 2 and 3 (insertion in m. semispinalis capitis) [1] | patients with increased uptake in the neck and shoulder areas ([1]; sixteen patients, high resolution PET scanner) | increase of tracer uptake in bacterial abscesses [2] | uptake and retention on swollen synovial tissue ([3]; inflamed synovial joints) | uptake in affected joint after intra-articular injections of glucocorticoids ([3]; observed 6-14 days after treatment) | blocking of uptake in inflamed joint by Eldepryl (MAO-B blocking) ([3]; one patient re-examined after administration of Eldepryl) | activity in inflamed tissue as seen in PET images ([3]; patients with rheumatoid arthritis) | reduction of activity in inflamed tissue ([3]; the day after intra-articular administration of glucocorticoid) [%] | increased uptake in scanned neck and shoulder regions [4] | tracer binding in inflammatory tissues in vitro [5] | binding in frozen section autoradiography ([5]; various tissues) |
| --- | --- | --- | --- | --- | --- | --- | --- | --- | --- | --- | --- | --- | --- | --- |
| C#CCN([11CH3])[C@@H](C)Cc1ccccc1 [DDE, D-[methyl-^11C]-deprenyl] | 57%-127% | appeared to bind to soft tissue in the neck vertebra | 40 | approximately 70% | about 50% | no visible increase | very pronounced uptake and retention | significant diminishing of the uptake | no blocking effect | very high activity | 50 | None of the subjects revealed an increased uptake | very high | much higher binding in inflamed joints than any other tissues |
| [11CH3]Oc1ccc(-n2nnnc2C(F)(F)F)cc1CN[C@H]1CCCN[C@H]1c1ccccc1 [GLD, [^11C]-GR205171] |  |  |  | approximately 70% |  | no visible increase |  |  |  |  |  |  | very high |  |

— patent US20110293518A1 (GE HEALTHCARE LIMITED, priority 2005, published 2011)
